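96-well plates; 48 h exposure; 5 concentrations. Endpoints by linear interpolation between flanking doses. Not reached: highest tested concentration assigned. GI50 marks 50% less growth.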 Active and inactive are the calls of the source. No stated cut-off is given here; in the data, active = GI50 up to about 1.1 µM and inactive = higher.
What was measured:
Experiment in all cases: NCI-60 cell line screen, 48 h
[1] = tested on: HOP-92
[2] = tested on: UO-31
[3] = tested on: SK-MEL-28
[4] = tested on: PC-3
[5] = tested on: NCI-H522
[6] = tested on: SK-OV-3
[7] = tested on: HOP-62
[8] = tested on: SN12C
[9] = tested on: OVCAR-5
[10] = tested on: UACC-257
[11] = tested on: RPMI-8226
[12] = tested on: K562
[13] = tested on: SF-295
[14] = tested on: SW-620
[15] = tested on: Malme-3M
[16] = tested on: OVCAR-3
[17] = tested on: KM12
[18] = tested on: SK-MEL-5
[19] = tested on: SR
[20] = tested on: MDA-N

For CCCCCCNCCCNc1c2cc(OC)ccc2nc2cccc([N+](=O)[O-])c12, the GI50 [1] was 0.136 µM (active), the GI50 [2] was 0.188 µM (active) and the GI50 [3] was 0.208 µM (active). For the same compound, the GI50 [4] was 0.144 µM (active), the GI50 [5] was < 0.0195 µM (active) and the GI50 [6] was 0.627 µM (active). The GI50 [7] was 0.0908 µM (active), the GI50 [8] was 0.0787 µM (active) and the GI50 [9] was 0.135 µM (active). For the same compound, the GI50 [10] was 0.366 µM (active), the GI50 [11] was < 0.0289 µM (active) and the GI50 [12] was 0.103 µM (active). For the same compound, the GI50 [13] was 0.0865 µM (active), the GI50 [14] was < 0.0233 µM (active) and the GI50 [15] was 0.0304 µM (active). The GI50 [16] was 0.0966 µM (active), the GI50 [17] was 0.144 µM (active) and the GI50 [18] was < 0.0385 µM (active). For the same compound, the GI50 [19] was 0.0173 µM (active).
S=C(N/N=C\C=N/NC(=S)N1CCCCCC1)N1CCCCCC1 was tested, and the GI50 [1] was 59 µM (inactive), the GI50 [2] was 8.22 µM (inactive) and the GI50 [3] was > 100 µM (inactive). The GI50 [4] was 12.2 µM (inactive), the GI50 [5] was 8.07 µM (inactive) and the GI50 [6] was 25.5 µM (inactive). For the same compound, the GI50 [7] was 9.12 µM (inactive), the GI50 [8] was > 100 µM (inactive) and the GI50 [9] was > 100 µM (inactive). The GI50 [10] was > 61.9 µM (inactive), the GI50 [20] was > 68.1 µM (inactive) and the GI50 [11] was > 100 µM (inactive). The GI50 [12] was 9.14 µM (inactive), the GI50 [13] was 7.73 µM (inactive) and the GI50 [14] was 6.78 µM (inactive). For the same compound, the GI50 [15] was 22.2 µM (inactive), the GI50 [16] was 13.8 µM (inactive) and the GI50 [17] was 18.7 µM (inactive). For the same compound, the GI50 [18] was 14.2 µM (inactive).
O=c1c(Cl)c(Cl)c(=O)c2sc3cc(Cl)ccc3[nH]c1=2 was tested, and the GI50 [1] was 16.7 µM (inactive), the GI50 [2] was 18.2 µM (inactive) and the GI50 [3] was > 100 µM (inactive). The GI50 [4] was 32.6 µM (inactive), the GI50 [5] was 16.1 µM (inactive) and the GI50 [6] was > 100 µM (inactive). For the same compound, the GI50 [7] was > 100 µM (inactive), the GI50 [9] was 29.6 µM (inactive) and the GI50 [10] was 15.3 µM (inactive). For the same compound, the GI50 [11] was 4 µM (inactive), the GI50 [12] was 15.5 µM (inactive) and the GI50 [13] was 70.8 µM (inactive). The GI50 [14] was 20.3 µM (inactive), the GI50 [15] was 40.1 µM (inactive) and the GI50 [16] was 15 µM (inactive). For the same compound, the GI50 [17] was > 100 µM (inactive), the GI50 [18] was 25.1 µM (inactive) and the GI50 [19] was 7.48 µM (inactive).
For CC(=O)n1c(COS(C)(=O)=O)nc2ccccc21, the GI50 [1] was > 100 µM (inactive), the GI50 [2] was > 100 µM (inactive) and the GI50 [3] was > 100 µM (inactive). For the same compound, the GI50 [4] was > 100 µM (inactive), the GI50 [5] was > 100 µM (inactive) and the GI50 [7] was 50.2 µM (inactive). For the same compound, the GI50 [8] was > 100 µM (inactive), the GI50 [9] was > 100 µM (inactive) and the GI50 [10] was > 100 µM (inactive). The GI50 [20] was > 100 µM (inactive), the GI50 [13] was 54 µM (inactive) and the GI50 [14] was > 100 µM (inactive). The GI50 [15] was > 100 µM (inactive), the GI50 [16] was 58.6 µM (inactive) and the GI50 [17] was > 100 µM (inactive). For the same compound, the GI50 [18] was > 100 µM (inactive).
With CC(C)CCc1n[nH]c(=O)n1/N=C\c1ccccc1 the GI50 [1] was > 100 µM (inactive), the GI50 [2] was 26.4 µM (inactive) and the GI50 [3] was > 100 µM (inactive). For the same compound, the GI50 [5] was 85.7 µM (inactive), the GI50 [6] was > 100 µM (inactive) and the GI50 [7] was > 100 µM (inactive). For the same compound, the GI50 [8] was > 100 µM (inactive), the GI50 [9] was > 100 µM (inactive) and the GI50 [10] was > 100 µM (inactive). The GI50 [20] was > 100 µM (inactive), the GI50 [12] was 83 µM (inactive) and the GI50 [13] was > 100 µM (inactive). For the same compound, the GI50 [14] was > 100 µM (inactive), the GI50 [15] was > 100 µM (inactive) and the GI50 [16] was > 100 µM (inactive). The GI50 [17] was > 100 µM (inactive) and the GI50 [18] was > 100 µM (inactive).
For O=C(CC/C(CC(=O)c1ccc(Cl)cc1)=N/O)Nc1ccc(Cl)c(Cl)c1, the GI50 [1] was 82.4 µM (inactive), the GI50 [2] was 98.4 µM (inactive) and the GI50 [3] was > 100 µM (inactive). The GI50 [5] was 82.6 µM (inactive), the GI50 [6] was > 100 µM (inactive) and the GI50 [7] was > 100 µM (inactive). For the same compound, the GI50 [8] was > 100 µM (inactive), the GI50 [9] was 24 µM (inactive) and the GI50 [10] was > 100 µM (inactive). For the same compound, the GI50 [11] was 76.9 µM (inactive), the GI50 [12] was 50.4 µM (inactive) and the GI50 [13] was > 100 µM (inactive). For the same compound, the GI50 [14] was > 100 µM (inactive), the GI50 [15] was > 100 µM (inactive) and the GI50 [16] was > 100 µM (inactive). The GI50 [17] was > 100 µM (inactive), the GI50 [18] was 76.2 µM (inactive) and the GI50 [19] was 89.5 µM (inactive).
In the case of Nc1nc(N)c(CCCCc2ccccc2)c(/C=C/c2ccc([N+](=O)[O-])cc2)n1, the GI50 [1] is reported as 0.0182 µM (active), the GI50 [2] is reported as 1.91 µM (inactive) and the GI50 [3] is reported as 3.33 µM (inactive). For the same compound, the GI50 [5] was 2.24 µM (inactive), the GI50 [6] was 6.67 µM (inactive) and the GI50 [7] was 2.77 µM (inactive). The GI50 [8] was 2.74 µM (inactive), the GI50 [9] was 3.87 µM (inactive) and the GI50 [10] was 2.51 µM (inactive). The GI50 [11] was 3.31 µM (inactive), the GI50 [12] was 0.348 µM (active) and the GI50 [13] was 1.42 µM (inactive). For the same compound, the GI50 [14] was 1.24 µM (inactive), the GI50 [15] was 1.67 µM (inactive) and the GI50 [16] was 2.43 µM (inactive). For the same compound, the GI50 [17] was 3.03 µM (inactive), the GI50 [18] was 2.18 µM (inactive) and the GI50 [19] was 1.56 µM (inactive).
COc1cc(O)c2c(=O)c3c(C)cccc3n(C)c2c1 was tested, and the GI50 [1] was > 10 µM (inactive), the GI50 [2] was > 10 µM (inactive) and the GI50 [3] was > 10 µM (inactive). For the same compound, the GI50 [4] was > 10 µM (inactive), the GI50 [5] was > 10 µM (inactive) and the GI50 [6] was > 10 µM (inactive). The GI50 [7] was > 10 µM (inactive), the GI50 [8] was > 10 µM (inactive) and the GI50 [9] was > 10 µM (inactive). The GI50 [10] was > 10 µM (inactive), the GI50 [20] was > 10 µM (inactive) and the GI50 [11] was > 10 µM (inactive). The GI50 [12] was > 10 µM (inactive), the GI50 [13] was > 10 µM (inactive) and the GI50 [14] was > 10 µM (inactive). The GI50 [15] was > 10 µM (inactive), the GI50 [16] was > 10 µM (inactive) and the GI50 [17] was > 10 µM (inactive). For the same compound, the GI50 [18] was > 10 µM (inactive).
